Source: patent US20050227220A1, “Compositions and Methods for Evaluating and Designing Nuclear Receptor Ligands that Modulate Co-Regulator Affinity” (priority 2002, published 2005)
“Also recorded” adds a separate entry of the source.

Key:
PPARδ LBD = biological target: T1, PPARδ LBD (Homo sapiens, UniProt Q03181); assay: FRET assay: ligand effect on CBP fragment / NCoR ID-C binding to PPAR LBD; format: biochemical
T1 construct: made in house; host or cells: bacterial BL21-DE3, vector pRSETA
T1 sequence (Q03181 139-441): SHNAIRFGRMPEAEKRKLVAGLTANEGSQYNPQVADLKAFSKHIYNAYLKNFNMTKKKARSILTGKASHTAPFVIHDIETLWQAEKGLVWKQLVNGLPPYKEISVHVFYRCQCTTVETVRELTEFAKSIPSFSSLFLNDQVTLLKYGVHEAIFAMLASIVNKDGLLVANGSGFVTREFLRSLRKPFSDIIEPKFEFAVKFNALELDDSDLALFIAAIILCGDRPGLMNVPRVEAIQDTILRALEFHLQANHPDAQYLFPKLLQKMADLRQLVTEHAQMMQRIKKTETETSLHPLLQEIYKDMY
Source text: (§1) The experimentally determined α value is the ratio of cofactor affinities in the presence and absence of a saturating concentration of ligand. This analysis permits a direct comparison of the effects of compounds, independent of cofactor concentration and differences in coregulator affinity for the individual receptors. […] 98(9): p.
(§2) The effects of the coregulator environment on the apparent affinities and selectivities of various ligands were than examined. Experimentally determined pKs and the α values derived from the FRET assay were used to calculate the apparent affinity of the ligand for the receptor/cofactor complex (i.e. K/α).
(§3) FIG. 5 illustrates the effect of ligands on coactivator and corepressor binding to PPAR subtypes determined by FRET.

PPARα LBD = biological target: T2, PPARα LBD (Homo sapiens, UniProt Q07869); assay: as above; format: biochemical
T2 construct: made in house; host or cells: bacterial BL21-DE3, vector pRSETA
T2 sequence (Q07869 192-468): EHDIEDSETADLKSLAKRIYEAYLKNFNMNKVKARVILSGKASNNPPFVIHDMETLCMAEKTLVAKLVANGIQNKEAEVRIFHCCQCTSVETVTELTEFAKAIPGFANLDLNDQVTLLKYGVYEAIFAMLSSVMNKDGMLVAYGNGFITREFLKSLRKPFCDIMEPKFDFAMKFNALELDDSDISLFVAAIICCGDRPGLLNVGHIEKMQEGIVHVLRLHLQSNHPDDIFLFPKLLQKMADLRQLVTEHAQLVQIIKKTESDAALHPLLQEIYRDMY
Source text: as §1, §2, §3

PPARγ LBD = biological target: T3, PPARγ LBD (Homo sapiens, UniProt P37231); assay: as above; format: biochemical; details: 10 nM PPAR LBD
T3 construct: made in house; host or cells: bacterial BL21-DE3, vector pRSETA
T3 sequence (P37231 234-505): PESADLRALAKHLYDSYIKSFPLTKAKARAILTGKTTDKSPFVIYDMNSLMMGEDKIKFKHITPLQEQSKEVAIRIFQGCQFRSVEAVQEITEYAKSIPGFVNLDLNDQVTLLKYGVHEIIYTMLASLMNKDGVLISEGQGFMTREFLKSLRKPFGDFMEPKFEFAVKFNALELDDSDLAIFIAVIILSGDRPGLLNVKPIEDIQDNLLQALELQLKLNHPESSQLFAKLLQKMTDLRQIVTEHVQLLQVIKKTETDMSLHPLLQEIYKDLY
Source text: as §1, §2, §3

[1] = biological target: PPARγ ligand binding domain (Homo sapiens, UniProt P37231); assay: Surface plasmon resonance: effect of compounds on co-repressor peptide binding to PPAR LBD; details: SPR equilibrium response, immobilized biotinylated peptides
Sequence of PPARγ ligand binding domain (P37231 234-505): as above
Procedure: (§7) A surface plasmon resonance assay was used to further characterize the effects of PPAR ligands binding of peptides derived from the co-repressors NCOR and SMRT to the PPAR subtypes. Each peptide was biotinylated and immobilized on separate flow cells of a BlAcore sensor chip. Using a BIAcore instrument, fixed concentrations of each PPAR subtype ligand binding domain were incubated with varied concentrations of test compounds and injected over the peptide-derivatized sensor chip to determine the equilibrium binding response of the receptors for the immobilized peptides.
(§8) The binding of co-activator and co-repressor peptides with PPAR ligand binding domains and the effects of compounds on these interactions were determined by surface plasmon resonance using the Biacore 3000. Approximately 300 resonance units (RU) of biotinylated peptides were immobilized to individual flow cells of a streptavidin chip. All experiments were conducted at 25° C. at a flow rate of 10 μl/minute with a buffer containing 10 mM HEPES, pH 7.4, containing 0.15 M NaCl, 3 mM EDTA and 0.005% polysorbate-20. […] Binding was determined by measuring the equilibrium binding response 10 seconds before the end of the association phase minus the response from a flow cell with no immobilized peptide.
(§9) Each point is the average of three injections.

PPARδ LBD / RXRα LBD = biological target: T4, PPARδ LBD / RXRα LBD (Homo sapiens, UniProt Q03181); assay: FRET assay: ligand effect on RXRα LBD binding to PPAR LBD; details: 10 nM PPAR LBD, 4 concentrations of RXR
T4 sequence (Q03181 139-441): T1 sequence (Q03181 139-441)
T4 sequence (P19793 225-462 partner limits assumed): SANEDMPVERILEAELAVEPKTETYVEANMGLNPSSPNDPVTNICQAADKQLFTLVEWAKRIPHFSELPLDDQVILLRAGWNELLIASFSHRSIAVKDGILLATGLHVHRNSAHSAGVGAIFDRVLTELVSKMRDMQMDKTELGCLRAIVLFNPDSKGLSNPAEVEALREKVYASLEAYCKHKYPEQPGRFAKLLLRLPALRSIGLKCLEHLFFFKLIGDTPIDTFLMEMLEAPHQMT

[2] = biological target: PPARα ligand binding domain (Homo sapiens, UniProt Q07869); assay: Surface plasmon resonance: effect of compounds on co-repressor peptide binding to PPAR LBD; details: SPR equilibrium response, immobilized biotinylated peptides
Procedure: as §7, §8, §9

full length human PPARα = biological target: T5, full length human PPARα (Homo sapiens, UniProt Q07869); assay: Mammalian two-hybrid assay (CV-1 cells); format: cell-based; details: VP16-PPARα, GAL4-NCoR (2239-2300), result in words
T5 construct: expressed in transfected cells; host or cells: CV-1 cells, vector pVP16 (Clonetech)
T5 sequence (Q07869 1-468): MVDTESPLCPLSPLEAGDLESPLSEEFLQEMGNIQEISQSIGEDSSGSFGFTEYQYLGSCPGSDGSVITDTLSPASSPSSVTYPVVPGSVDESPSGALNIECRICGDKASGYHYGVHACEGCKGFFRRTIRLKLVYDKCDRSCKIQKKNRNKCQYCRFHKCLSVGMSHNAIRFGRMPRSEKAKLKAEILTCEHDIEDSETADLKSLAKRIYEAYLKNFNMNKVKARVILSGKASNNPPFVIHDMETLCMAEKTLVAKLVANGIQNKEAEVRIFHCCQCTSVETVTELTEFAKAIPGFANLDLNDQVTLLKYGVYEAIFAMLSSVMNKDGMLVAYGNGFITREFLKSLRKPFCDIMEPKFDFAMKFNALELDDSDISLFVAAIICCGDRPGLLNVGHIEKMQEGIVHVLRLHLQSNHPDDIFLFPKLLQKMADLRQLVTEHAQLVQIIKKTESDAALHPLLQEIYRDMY
Source text: (§4) Mammalian two-hybrid assays were used to examine the ability of the tyrosine-based class of PPAR ligands to promote association or dissociation of the co-activator CBP and the corepressor NCoR in the context of a cellular environment. The assays for the three PPAR subtypes used full length human PPARα, PPARγ2 or PPARδ fused to the activation domain of VP16 and previously identified interaction domains of CBP and NCoR fused to the DNA binding domain of GAL4.
(§5) Expression plasmids for the VP16-human PPAR constructs were prepared by inserting amplified cDNAs encoding full length PPARα, PPARγ2 and PPARδ fused to amino acids 410-490 of the VP16 viral activation domain, into the expression vector pVP16 (Clonetech). […] The reporter plasmid was (UAS)5-tk-SPAP, and the internal control plasmid for all transfections was β-galactosidase expression vector (pCH110, Amersham).
(§6) CV-1 cells were maintained in culture in DME high glucose medium supplemented with 10% FBS and 2 mM glutamine in a humidified incubator (5% CO2 in air) at 37° C. Cells were harvested 72 hours prior to experimental use and placed in phenol red free D-MEM/F-12 medium with 15 mM HEPES supplemented with 10% charcoal/dextran-treated FBS (HyClone, Logan, Utah). The cells were harvested and seeded at 2.0×10^4 cell per well in a 96-well plate the day prior to transfection. Cells were transfected for 16 hr using Lipofectamine (Life Technologies, Inc., Rockville, Md.) essentially according to the manufacturer's instructions. The total amount of DNA transfected into each well was 80 ng. Transfection mixtures contained 8 ng VP16-PPAR plasmid, 8 ng SPAP reporter, 25 ng of pCH110(β-galactosidase) control plasmid, 35 ng of pBluescript II KS+ (Clonetech) and 4 ng of either coactivator or corepressor plasmid. Transfection quantities for full length PPAR and cofactor plasmids were optimized to generate a signal that was half of the maximal activation. These conditions would allow for dissociation or association to be experimentally determined for each ligand evaluated. Stock solutions of drugs were prepated in DMSO and dilutions were made in phenol red-free D-MEM/F-12 with 15 mM HEPES supplemented with 10% charcoal stripped, delipidated, heat inactivated (62° C. for 35 min) bovine calf serum (Sigma, St. Louis, Mo.) such that the final concentration of DMSO was 0.1%. Transfection mixtures were aspirated and 100 μl, of medium containing drug was added to each well.

full length human PPARδ = biological target: T6, full length human PPARδ (Homo sapiens, UniProt Q03181); assay: Mammalian two-hybrid assay (CV-1 cells); format: cell-based; details: VP16-PPARδ, GAL4-NCoR (2239-2300), result in words
T6 construct: expressed in transfected cells; host or cells: CV-1 cells, vector pVP16 (Clonetech)
T6 sequence (Q03181 whole entry, the tested form may be a part): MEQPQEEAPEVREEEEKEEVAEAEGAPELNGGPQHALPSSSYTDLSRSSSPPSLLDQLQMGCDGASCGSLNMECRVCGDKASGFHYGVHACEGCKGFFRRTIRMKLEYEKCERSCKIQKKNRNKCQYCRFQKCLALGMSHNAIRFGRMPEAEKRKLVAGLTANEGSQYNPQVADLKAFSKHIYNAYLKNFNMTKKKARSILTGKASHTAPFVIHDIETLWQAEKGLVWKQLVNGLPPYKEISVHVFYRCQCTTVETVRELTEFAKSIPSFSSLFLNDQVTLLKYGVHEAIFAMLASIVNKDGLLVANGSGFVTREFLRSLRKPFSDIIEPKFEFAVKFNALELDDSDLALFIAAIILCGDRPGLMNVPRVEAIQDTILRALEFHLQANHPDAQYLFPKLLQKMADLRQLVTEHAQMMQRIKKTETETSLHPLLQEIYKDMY
Source text: as §4, §5, §6

[3] = α = ratio of cofactor affinities in presence and absence of saturating ligand

effect on apparent affinity of PPARδ for the co-activator fragment from CBP (PPARδ LBD; 10 nM PPAR LBD, CBP (57-454)): increased the apparent affinity | log α (NCoR association with PPARδ) (PPARδ LBD; [3]): 0.14 | effect on apparent affinity of PPARα for the co-activator fragment from CBP (PPARα LBD; 10 nM PPAR LBD, CBP (57-454)): increased the apparent affinity | alpha value for the association of PPARα and NCoR (PPARα LBD; [3]): 0.16 | effect on apparent affinity of PPARγ for the co-activator fragment from CBP (PPARγ LBD; CBP (57-454)): increased the apparent affinity | effect on affinity of PPARγ for the co-repressor peptide (PPARγ LBD; NCoR ID-C): decrease the affinity | effect on binding of PPARγ LBD to the NCOR- and SMRT-derived co-repressor peptides [1]: decreased the binding | promotion of association of PPARδ with RXR (PPARδ LBD / RXRα LBD): most effective | effect on binding of PPARα LBD to the NCOR and SMRT co-repressor peptides [2]: increase the binding | effect on PPARδ interaction with NCoR (full length human PPARδ): no significant association
Structure (SMILES): COC(=O)c1ccccc1N[C@@H](Cc1ccc(OCCc2nc(-c3ccccc3)oc2C)cc1)C(=O)O [GW7845]
effect on affinity of PPARα for the co-repressor peptide (PPARα LBD; 10 nM PPAR LBD, NCoR ID-C): enhanced the binding; also recorded: slightly increase the affinity | effect on PPARα interaction with NCoR (full length human PPARα): neither GW1929 nor GW7845 were able to promote association with NCoR
